Our source for the Activity values is ChEMBL document CHEMBL5257042, “Highly Oxidized Ecdysteroids from a Commercial Cyanotis arachnoidea Root Extract as Potent Blood-Brain Barrier Protective Agents” (J Nat Prod, 2023).

A short description of data set [1]: Cytotoxicity against human CMEC/D3 cells assessed as increase in cell impedance at 1 uM incubated for 4 hrs by RTCA assay. The data set is classed as toxicity, cell-based. To be noted: hcmec/d3, 4 h.
Data set [2] deals with hCMEC/D3. As to the kind of experiment: Cytoprotective activity against TNFalpha-induced cellular damage in human CMEC/D3 cells assessed as increase in cell impedance at 1 uM incubated for 4 hrs by RTCA assay. The data set is classed as functional, cell-based.
In data set [3] the test system is hCMEC/D3. Put plainly: Cytoprotective activity against tBHP-induced oxidative damage in human CMEC/D3 cells at 1 uM incubated for 4 hrs by RTCA assay. The data set is classed as functional, cell-based.
Data set [4] can be described thus: Cytotoxicity against human CMEC/D3 cells assessed as decrease in cell impedance at 10 uM incubated for 4 hrs by RTCA assay. The data set is classed as toxicity, cell-based. To be noted: hcmec/d3, 4 h.
In data set [5] the test system is hCMEC/D3. Put plainly: Cytoprotective activity against IL-1beta-induced cellular damage in human CMEC/D3 cells assessed as increase in cell impedance at 1 uM incubated for 4 hrs by RTCA assay. In kind it is functional, cell-based.

Active and inactive are the calls of the source. No cut-off for these calls is given here.

On to `CC(C)(O)CCC(=O)[C@](C)(O)[C@H]1CC(=O)C2=C3C(=O)C(O)=C4C[C@@H](O)[C@@H](O)C[C@]4(C)C3=CC[C@@]21C`, for which the Activity entry in data set [1] and in data set [4] was “Non-Toxic” throughout. Besides, the outcome in data set [2], in data set [3] and in data set [5] was Active.
Regarding `CC(C)(O)CC[C@H]1O[C@H]2C(=O)[C@@H]3C4=C(CC[C@]3(C)[C@H]2[C@@]1(C)O)[C@@]1(C)C[C@H](O)[C@H](O)CC1=C(O)C4=O`, the Activity result is recorded as “Non-Toxic” in data set [1] and “Toxic” in data set [4]. For the same compound, the outcome in data set [2], in data set [3] and in data set [5] was Active.
As for `CC(C)(O)CC[C@@H](O)[C@](C)(O)[C@H]1C[C@H](O)C2=C3C(=O)C(O)=C4C[C@@H](O)[C@@H](O)C[C@]4(C)[C@@]3(O)CC[C@@]21C`, the Activity result in data set [1] and in data set [4] was “Non-Toxic” each time. Further, the result in data set [2], in data set [3] and in data set [5] was Active.
